Experimental data as given in patent publication US20230119479A1, “A HISTONE DEACETYLASE INHIBITOR HAVING A NITROGEN-CONTAINING AROMATIC HETEROCYCLYL GROUP” (SHIONOGI & CO., LTD., priority 2019, published 2023).
pIC50: −log10 of the molar value.

Experiments:
[1] = biological target: T1, HDAC2 Human recombinant C-terminal FLAG-tag (Homo sapiens, UniProt Q92769); assay: Measurement of HDAC2 enzyme inhibitory activity (HTRF); format: biochemical; conditions: recombinant HDAC2, H3K9ac peptide, 3 hours room temperature; read-out: HDAC2 IC50
T1 construct: FLAG (C); purchased BPS Bioscience 50052
Outline: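 Compounds were tested at 8 points in 3-fold dilutions from 99 μM final (n=2) against FLAG-tagged HDAC2 with biotinylated H3K9ac (1-21) peptide (0.6 μM as added). The reaction ran 3 h at room temperature in Tris pH 8.0 buffer, then was stopped with SAHA. Deacetylated product was detected by HTRF (Eu-anti-H3K9me0 antibody, streptavidin-XL665) as the 665/615-620 nm ratio.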

[2] = test system: HDACs other than HDAC2 (HDAC2 knockout K562 cells); assay: Evaluation of HDAC2 selectivity: H3K9 histone acetylation in HDAC2 knockout K562 cells (AlphaLISA); format: cell-based; conditions: Homo sapiens, maximum concentration 83.3 μM, 100% = SAHA-treated group, read-out: maximum inhibition rate (H3K9 histone acetylation);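 also: 0% inhibition equals DMSO-treated group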
Procedure: Test Example 3: Evaluation of HDAC2 Selectivity
K562 cells were cultured in RPMI1640 medium (SIGMA, R8758) containing 10% FBS (Hyclone, SH30070.03) and 1% penicillin streptomycin (Nacalai Tesque, 26252-94). CompoZr (registered trademark) Zinc Finger Nuclease (Merck) targeting HDAC2 sequences was transfected into K562 cells by electroporation using Nucleofector (Lonza). The cells after transfection were subjected to limiting dilution, and DNA sequencing was performed on the cell clones in which mutations were detected by the PCR method. Cell clones lacking a base number that was not a multiple of 3 in both alleles were identified, and a single-cell cloning was performed on the cell clones to produce HDAC2 knockout K562 cells. It was confirmed that the expression of HDAC2 was not detected by Western blotting in the prepared cells.
By evaluating the H3K9 histone acetylation-enhancing activity of the test compound using HDAC2 knockout K562 cells, the inhibitory activity against HDACs other than HDAC2 was evaluated.
HDAC2 knockout K562 cells stored in liquid nitrogen were thawed and cultured in RPMI1640 medium (Nacalai Tesque, 30264-85) for 2 to 4 days. Using Echo555 (Beckman Coulter), the test compound was dispensed to the assay plate (Corning, 4513) at 37.5 nL/well, and then HDAC2 knockout K562 cells were seeded to 125 cells/4.5 μL/well, and stirred. At this time, the test compound was treated at 8 points (n=2) in the 3-fold dilution series from the maximum concentration of 83.3 μM. After culturing at 37° C. and 5% CO2 overnight, 1.5 μL/well of Lysis buffer (PerkinElmer, AL009F1) was added, and after incubating at room temperature for 15 minutes, 3 μL/well of Extraction buffer (PerkinElmer, AL009F2) was added and the mixture was incubated for 10 minutes at room temperature. Then, 5× antibody solution (prepared by diluting anti-H3K9 Acceptor beads (PerkinElmer, AL114M) 75-fold with a detection buffer prepared by diluting 10×Cell-Histone Detection buffer (PerkinElmer, AL009F3) 10-fold with ultrapure water, and diluting Biotinylated anti H3 antibody (PerkinElmer, AL118M) diluted 150 times with the detection buffer) was added at 3 μL/well, and after incubating at room temperature for 60 minutes, then 5× donor beads solution (prepared by diluting Streptavidin Donor beads (PerkinElmer, 6760002) 75 fold with the detection buffer) was added at 3 μL/well, and the mixture was incubated again at room temperature for 60 minutes, and then the emission value was measured using PHERAstar (BMG LABTECH) (excitation=680 nm, […]). […] For cell toxicity, cell viability rate was evaluated by the PrestoBlue method.

[3] = Platelet toxicity test using human blood progenitor cells (WST); format: cell-based; conditions: human bone marrow CD34+ progenitor cells, maximum concentration 25 μM
Procedure: Test Example 2: Platelet Toxicity Test Using Human Blood Progenitor Cells
Human bone marrow CD34+ progenitor cells (Lonza, 2M-101B) stored at −80° C. were thawed, spun down at 150 g for 10 minutes at 20° C., and a medium (StemSpan Expansion Supplement, STEM CELL TECHNOLOGIES, ST-02696) to which cytokines (StemSpan SFEM II, STEM CELL TECHNOLOGIES, ST-09655) was added was added to adjust to 2×10^4/well, the mixture was seeded in 12well non-coat dish (Corning, 3513), was incubated for 10 days at 37° C., 5% CO2. After 10 days, the cells were collected and spun down at 150 g for 10 minutes at 20° C., and a medium (StemSpan Expansion Supplement) containing cytokines (StemSpan SFEM II) was added so that the number of cells became 2×10^5 cells/ml. 50 μl of the cell suspension was seeded to each well of a 96-well plate (Corning, 3596) and allowed to stand overnight in an incubator at 37° C., 5% CO2. The next day, 50 μl of the test compound was treated to each well and allowed to stand for 48 hours in the incubator at 37° C., 5% CO2 (n=2). At this time, the test compound dissolved in 100% DMSO was serially diluted with DMSO at a 3-fold ratio, and then a medium containing cytokine was added to adjust the final concentration to 25, 8.33, 2.78, 0.93, 0.31, 0.1 μM. After that, 10 μl of WST (Cell count reagent SF, Nacalai Tesque Inc., 07553-44) was added to each well, and the mixture was allowed to stand in the incubator for 4 hours at 37° C., 5% CO2, and then the multi-label reader 2030 ARVO X4 (PerkinElmer) was used to measure the absorbance. At this time, the absorbance at 450 nm and the absorbance at 620 nm were obtained, and the difference between 450 nm and 620 nm was used as the measured value. The measured values were analyzed by Excel and TIBCO Spotfire, and IC50 values were calculated. At this time, for control (−), the well without cells was set as n=6 for one row, and the average value was calculated, and for control (+), the well in which DMSO was added to the cells so as to have the same concentration as the compound treatment group was set as n=6 for one row, and the average value was calculated and corrected for each plate. For the test compound, the average value of n=2 was used.

[4] = Metabolism stability test; format: in vitro ADME; conditions: human liver microsomes 0.5 mg protein/mL, 30 minutes, 37° C., NADPH
Procedure: Using commercially available pooled human hepatic microsomes, a compound of the present invention is reacted for a constant time, and a remaining rate is calculated by comparing a reacted sample and an unreacted sample, thereby, a degree of metabolism in liver is assessed.
A reaction is performed (oxidative reaction) at 37° C. for 0 minute or 30 minutes in the presence of 1 mmol/L NADPH in 0.2 mL of a buffer (50 mmol/L Tris-HCl pH 7.4, 150 mmol/L potassium chloride, 10 mmol/L magnesium chloride) containing 0.5 mg protein/mL of human liver microsomes. After the reaction, 50 μL of the reaction solution is added to 100 μL of a methanol/acetonitrile=1/1 (v/v), mixed and centrifuged at 3000 rpm for 15 minutes. The compound of the present invention in the supernatant is quantified by LC/MS/MS or Solid Phase Extraction (SPE)/MS, and a remaining amount of the compound of the present invention after the reaction is calculated, letting a compound amount at 0 minute reaction time be 100%. The hydrolysis reaction is carried out in the absence of NADPH, and the glucuronidation reaction is carried out in the presence of 5 mmol/L UDP-glucuronic acid instead of NADPH, and the same operation is carried out thereafter. The dilution concentration and dilution solvent are changed as necessary.

T1 sequence (Q92769 whole entry): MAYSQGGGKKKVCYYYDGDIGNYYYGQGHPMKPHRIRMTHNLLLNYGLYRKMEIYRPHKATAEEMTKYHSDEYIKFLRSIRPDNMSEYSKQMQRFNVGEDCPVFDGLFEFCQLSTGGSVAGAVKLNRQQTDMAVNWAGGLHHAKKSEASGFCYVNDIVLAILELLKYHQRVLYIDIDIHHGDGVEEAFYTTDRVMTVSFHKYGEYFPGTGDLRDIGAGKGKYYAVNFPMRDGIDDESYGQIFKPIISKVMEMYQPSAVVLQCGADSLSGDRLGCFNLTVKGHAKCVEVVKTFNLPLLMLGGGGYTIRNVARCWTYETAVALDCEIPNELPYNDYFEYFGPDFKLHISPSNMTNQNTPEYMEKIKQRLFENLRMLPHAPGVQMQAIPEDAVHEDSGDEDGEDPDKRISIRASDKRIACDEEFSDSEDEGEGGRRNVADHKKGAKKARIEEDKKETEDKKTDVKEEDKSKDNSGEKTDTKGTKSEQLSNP

| SMILES | pIC50 [1] | inhibition at up to 83.3 µM [2] [%] | IC50 at 48 h [3] [µM] | remaining rate after reaction [4] [%] |
| --- | --- | --- | --- | --- |
| Nc1ccc(-c2ccc(F)nc2)cc1NC(=O)c1cnc(OCC2CC2)cn1 [Compound I-122] | 6.60 | 3 | > 25 |  |
| Nc1ccc(-n2cccc2)nc1NC(=O)c1cnc(C2CC2)cn1 [Compound I-161] | 6.46 | 9 | > 25 |  |
| Cn1cc(-c2ccc(N)c(NC(=O)c3cc4ccccc4cn3)c2)cn1 [Compound I-141] | 6.64 | 6 | > 25 |  |
| CN(C)c1cnc(C(=O)Nc2cc(-c3cnn(C)c3)ccc2N)cn1 [Compound I-179] | 7.09 | 9 |  | 93.5 |
| Nc1ccc(-c2ccccc2)nc1NC(=O)c1cnc(C2CC2)cn1 [Compound I-158] |  | 7 | > 25 |  |
| COc1ccc(C(=O)Nc2cc(-c3cnn(C)c3)ccc2N)nn1 [Compound I-254] | 6.47 | 3 |  |  |
| Cc1cnc(C(=O)Nc2nc(-c3ccccc3)ccc2N)cn1 [Compound I-169] | 6.44 |  |  | 91.4 |
| CN(C)c1ccc(C(=O)Nc2cc(-c3cnn(C)c3)ccc2N)nc1 [Compound I-177] | 6.77 |  |  | 92 |
| CCc1cnc(C(=O)Nc2cc(-c3cnn(C)c3)ccc2N)cn1 [Compound I-250] | 6.77 | 5 |  |  |
| Nc1ccc(-c2ccc(F)nc2)cc1NC(=O)c1cnc(OCF)cn1 [Compound I-121] | 6.62 |  | > 25 |  |
| Cn1cc(-c2ccc(N)c(NC(=O)c3ccc(C4CC4)cn3)c2)cn1 [Compound I-112] | 6.70 |  | > 25 |  |
| Cn1cc(-c2ccc(N)c(NC(=O)c3cnc(-c4cnn(C)c4)cn3)c2)cn1 [Compound I-036] | 6.80 | 8 | > 25 |  |
| CCOc1cnc(C(=O)Nc2cc(-c3cnn(C)c3)ccc2N)cn1 [Compound I-139] | 6.74 |  | > 25 |  |
| Nc1ccc(-c2ccc(F)nc2)cc1NC(=O)c1ccc(N2CCOCC2)cn1 [Compound I-093] | 6.89 |  | > 25 |  |
| Nc1ccc(-n2cccc2)nc1NC(=O)c1ccc(C2CC2)cn1 [Compound I-160] |  | 6 | > 25 |  |
| Cn1cc(-c2ccc(N)c(NC(=O)c3cnc(OCC(F)F)cn3)c2)cn1 [Compound I-152] | 6.60 |  |  | 97.9 |

| SMILES | pIC50 [1] | inhibition at up to 83.3 µM [2] [%] | IC50 at 48 h [3] [µM] | remaining rate after reaction [4] [%] |
| --- | --- | --- | --- | --- |
| Nc1ccc(-n2cccc2)nc1NC(=O)c1cnc(N2CCOCC2)cn1 [Compound I-030] | 6.72 | 9 |  | 101 |
| Cn1cc(-c2ccc(C(=O)Nc3nc(-c4cccs4)ccc3N)nn2)cn1 [Compound I-028] | 6.64 | 8 | > 25 |  |
| Nc1ccc(-c2ccc(F)nc2)cc1NC(=O)c1cnc(OC(F)F)cn1 [Compound I-132] | 6.37 | 6 | > 25 |  |
| CCOCCOc1cnc(C(=O)Nc2cc(-c3ccc(F)nc3)ccc2N)cn1 [Compound I-126] | 6.85 | 5 | > 25 |  |
| COc1ccc(C(=O)Nc2cc(-c3ccc(F)nc3)ccc2N)nc1 [Compound I-124] | 6.80 | 9 | > 25 |  |
| Nc1ccc(-c2ccc(F)nc2)nc1NC(=O)c1cnc(C2CC2)cn1 [Compound I-157] |  | 7 | > 25 |  |
| CC(=O)Nc1ccc(C(=O)Nc2cc(-c3ccc(F)nc3)ccc2N)nc1 [Compound I-280] | 7.30 | 8 |  |  |
| Cn1cc(-c2cc(C(=O)Nc3cc(-c4ccc(F)nc4)ccc3N)no2)cn1 [Compound I-198] | 6.62 | 5 | > 25 |  |
| COCCOc1ccc(C(=O)Nc2cc(-c3ccc(F)nc3)ccc2N)nc1 [Compound I-127] | 6.96 | 7 | > 25 |  |
| Nc1ccc(-c2ccc(F)nc2)cc1NC(=O)c1ccc(OCF)cn1 [Compound I-142] | 6.74 | 8 | > 25 |  |
| Nc1ccc(-c2ccc(F)nc2)cc1NC(=O)c1ccc2ocnc2n1 [Compound I-148] | 6.82 |  |  | 94.9 |
| Nc1ccc(-c2ccc(F)nc2)cc1NC(=O)c1cnc(C2CC2)cn1 [Compound I-129] | 7.03 |  | > 25 |  |
| CCOc1ccc(C(=O)Nc2cc(-c3ccc(F)nc3)ccc2N)nn1 [Compound I-268] | 6.89 |  |  |  |
| Nc1ccc(-c2ccc(F)nc2)cc1NC(=O)c1ccc(C(F)F)cn1 [Compound I-144] | 6.64 | 7 | > 25 |  |
| CCOc1ccc(C(=O)Nc2cc(-c3cnn(C)c3)ccc2N)nc1 [Compound I-165] | 6.70 |  |  |  |
